Measured values: article PMC9321043, “Synthesis, Structure–Activity Relationships, and Parasitological Profiling of Brussonol Derivatives as New Plasmodium falciparum Inhibitors” (Pharmaceuticals, 2022)

Legend:
HepG2 cells = experiment: Cytotoxic test on immortalized cells, MTT; type: cell-based, human; conditions: Homo sapiens, HepG2, 72 h
Description: The cytotoxic effects of brussonol and derivatives were evaluated against the human hepatocellular carcinoma cell line (HepG2). The cells were cultivated in an RPMI medium supplemented with 10% (v/v) fetal bovine serum and 25 µg/mL gentamicin. Conditions for the cultivation of these cells were 37 °C and 5% CO2, and every 2 days the supplemented medium was changed.
For experimental procedures, the cells were trypsinized and transferred to a 96-well plate at 30,000 cells per well (180 µL). The plate was incubated at 37 °C and 5% CO2 to allow cell adhesion. Next, 20 µL of serial dilutions of the compounds tested were added to the plate, with a range of concentrations tested from 400–6.25 µM. Cells without any compounds were used as a positive control for growing and the wells containing only medium were used as negative controls. The plate was incubated for 72 h at 37 °C and 5% CO2. After incubation, a microscope was used to determine the highest compound concentration to be used in the experiments (highest concentration without precipitation). A colorimetric assay was used to evaluate cytotoxicity. This assay is based on the metabolic cell activity in the presence of 3-(4,5-dimethylthiazol-2-yl)-2,5-diphenyltetrazolium bromide (MTT). Shortly after incubation, 20 µL of a solution of MTT at 5 mg/mL (solubilized in phosphate buffer) is added to each well. The plate is incubated for 3 to 4 h at 37 °C to allow MTT cleavage in living cells. Then, the supernatant is removed, and 100 µL of dimethylsulfoxide (DMSO) is added to solubilize the purple formazan crystals. The absorbance, which is proportional to the number of viable cells, was determined using a SpectraMAX Plus 384 plate reader (Molecular Devices Corp., Sunnyvale, CA) (λ = 570 nm). All compounds described here were purchased from Sigma-Aldrich (verificar local).
After the IC50 against the parasite and the human cell line is determined, it is possible to calculate the SI. It is calculated as the formula below:SI = IC50^HepG2/IC50^Pf.
For our reference, compounds with SI values higher than 10 are considered well tolerated by the cellular model used, and they are considered for further evaluation.

[1] = test system: P. falciparum TM90C6B strain; experiment: Resistance assessment, TM90C6B strain; type: cell-based; conditions: Plasmodium falciparum

CC(C)c1cc2c(c(O)c1O)C[C@@]13CCCC(C)(C)[C@@H]1C[C@@H]2O3 [Compound 1, brussonol]
IC50 (HepG2 cells): 67 ± 4 µM
IC50 [1]: 7 ± 2 µM
